Assay results reported in patent US12037350B2, “Compositions and methods for the prevention and/or treatment of mitochondrial disease, including Friedreich's ataxia” (Stealth BioTherapeutics Inc., priority 2020, dated 2024).

How the values were obtained:
[1] = system: frataxin deficient fibroblasts (GM03665) from Friedreich's ataxia patient; experiment: Frataxin Deficient Fibroblast Viability Assay (BSO Assay); type: cell-based; conditions: for EC50: Homo sapiens, Fibroblast, FA patient fibroblasts pretreated with compound, BSO 10 mM, MTT after 48 hrs
Experimental: Example 12: Frataxin Deficient Fibroblast Viability Assay (the “BSO Assay”)
This Example was used to evaluate the various new compositions for their potential efficacy in the treatment of Friedreich's Ataxia (FA or FRDA)—substantially as described in the above cited Reference (Matthias et al.).
The stock solutions of the test articles (and control compounds) were prepared in dimethyl sulfoxide (DMSO at 10 mM), Working stock solutions (2 times concentrated) were prepared on the day of the experiment in respective cell culture medium to be used for assay (detailed medium description below). A listing of compounds used as test articles in this Example 12 are found in Table 1, below.
A patient derived frataxin deficient fibroblast cell line was obtained from Coriell Institute. More specifically, the following cell lines/DNA samples were obtained from the NIGMS Human Genetic Cell Repository at the Coriell Institute for Medical Research: GM03665. To evaluate importance of various growth conditions on cell susceptibility to BSO toxicity cells were grown on:
MEM (Sigma-Aldrich) 15% Fetal Bovine Serum (FBS) without growth factors;
MEM (Sigma-Aldrich) 15% FBS with growth factors (Catalogue number 100-18B, Recombinant Human FGF-basic (154 a.a.) and catalogue number AF-100-15, Animal-Free Recombinant Human EGF from Peprotech);
MEM199/MEM EBS (Bioconcept Ltd.) 10% FBS, insulin 10 μg/ml, L-glutamine 2 mM with growth factors (Catalogue number 100-18B, Recombinant Human FGF-basic (154 a.a.) and catalogue number AF-100-15, Animal-Free Recombinant Human EGF from Peprotech).
To conduct an experiment, fibroblast cells (from all growth conditions) were seeded (100 μL (cells 3×10^3/well) on 96-well plates in MEM199/MEM EBS medium 10% FBS, insulin 10 μg/mL, L-glutamine 2 mM with growth factors and allowed to grow on plate for 24 hrs. After 24 hrs., media was removed and then test compounds of interest were added (100 μL, 2 times concentrated stock) to 96-well plates (end DM80 concentration not exceeding 0.5%) and incubated for 24 hours. Then L-buthionine-sulfoximine (BSO, from Acros Organics, Cat. No. 235520010) was added (100 μL, 2 times concentrated stock) at end concentrations ranging from 1 to 10 mM. Both test compounds and BSO were dissolved in MEM199/MEM EBS medium 10% FBS, insulin 10 μg/mL, L-glutamine 2 mM with growth factors. Cell viability was monitored and either after 24- or 48-hours cell viability was assayed by MTT (Thiazolyl blue tetrazolium bromide) assay. For the MTT assay, media was removed and 100 μL of MTT 1 mg/mL was added, incubated for 2 hours at +37° C., then medium was removed and 100 μL of isopropanol added to dissolve sediment. Absorption was measured at 570 (OD570) and 650 (QD650) nm wavelengths. Control cells (vehicle instead of BSO and compound) and vehicle control (with BSO, but vehicle instead of test compound) were treated in the same manner as ceils with BSO and compound. All cell media contained penicillin and streptomycin 100 U/mL each.
Absorption readouts were processed as follows: ValueΔ=ValueOD570−ValueOD650 and the obtained values were used to calculate cell viability as % of control cell (i.e., no BSO, no compound, just vehicle) viability.
Except as otherwise indicated in Table 1, all samples were run in at least 3 replicates for test compounds and at least 8 replicates for controls (i.e., both control (no BSO, no compound) and vehicle control (i.e., with BSO, no compound). Exact N per data points are indicated in the figures/table legends. Results for the compounds (test articles and controls) tested are listed in Table 1, below.
This is a cell-based assay measuring cytotoxicity which results from oxidative stress subsequent to depletion of endogenous glutathione defense mechanisms. The cells were primary Friedreich Ataxia (FA) patient fibroblasts which were incubated for 48 hrs. in BSO, an inhibitor of gamma glutamyl synthetase, an enzyme required for glutathione production. […]

[2] = system: GM03665 cells (fibroblasts from a subject with Friedreich's ataxia); experiment: RSL-3 Toxicity Assay (RSL-3 Assay); type: cell-based, human; conditions: Homo sapiens, Fibroblast; GM03665 cells, RSL-3 2 μM, 24 hours, MTT
Source text: Example 14: RSL-3 Toxicity Assay (RSL-3 Assay)
This assay has been adapted from: Hinman, A., Holst, C. R., Latham, J. C., Bruegger, J. J., Ulas, G., McCusker, K. P., Amagata, A., Davis, D., Hoff, K. G., Kahn-Kirby, A. H., Kim, V., Kosaka, Y., Lee, E., Malone, S. A., Mei, J. J., Richards, S. J., Rivera, V., Miller, G., Trimmer, J. K., Shrader, W. D., “Vitamin E hydroquinone is an endogenous regulator of ferroptosis via redox control of 15-lipoxygenase”, (2018) PLoS ONE 13(8): e0201369.
In brief, GM03665 cells (Coriell Institute) were seeded in 96-well plates (Sarstedt) in DMEM cell culture media containing 10% Fetal Bovine serum and 1% Penicillin-Streptomycin (Pen-Strep) antibiotic mix at the amount of 2×10^4/mL (100 μL or 2×10^3 cells per well). Cells were left to rest overnight at 37° C. in a humidified atmosphere with 5% CO2 to allow attachment of the cells to the culture plate. Test compounds were prepared as DMSO stocks (10 mM) and were serially diluted in cell culture media to obtain 2× working solutions. Cell media was discarded and replaced by 50 μL of test compound solutions or cell media with vehicle for control wells. Within 15 minutes, 2× working solution (4 μM) of 1S,3R-RSL-3 (CAS #1219810-16-8, Sigma-Aldrich) (diluted from 5 mM DMSO stock in cell culture media) was added. Final reaction volume was 100 μL and final DMSO concentration in reaction was kept below 0.2% (v/v) and equal in all wells. Final RSL-3 concentration was 2 μM and test compound final concentrations in reaction were up to 1000 nM. After 24 hours of incubation cell viability was assessed by MTT test. MTT (Sigma-Aldrich) solution 1 mg/mL in IX PBS (pH=7.4) was prepared 1 hour before the assay and filtered through Filtropur S 0.2 filters (Sarstedt). Cell media with test compounds was discarded and 100 μL of MTT solution was added to cells. The plates were incubated for 2 hours at +37° C. Thereafter, the MTT solution was removed and 100 μL of isopropanol was added to dissolve sediment. Absorption at 570 and 650 nm was measured using Hidex Sense microplate reader.
Compounds A and B and idebenone were not examined in this assay. The data presented in Table 1 indicates omaveloxolone was not active in this assay but that vatiquinone was active.
Discussion—Both BSO and RSL-3 are frequently utilized to induce the regulated cell death pathway known as ferroptosis. Ferroptosis is thought to require the joint activity of iron catalyzed oxidative stress and lipid peroxidation and has been described in cell and animal models of multiple neurodegenerative diseases, including Friedreich's Ataxia, Huntington Disease, Parkinson Disease and Alzheimer's Disease. […] Of note, the results for Compounds C-I and K were favorable with respect to inhibition of ferroptotic cell death when either BSO or RSL3 were used as initiating stimulus, differentiating these compounds from omaveloxolone and idebenone.

HepG2 cells = experiment: Rotenone Oxygraph Assay (high-resolution respirometry of intact HepG2 cells); type: cell-based, human; conditions: Homo sapiens; intact HepG2 cells, rotenone 1 μM, compound 10 μM, increase in respiration rate
Experimental: Example 15: Rotenone Oxygraph Assay (High-Resolution Respirometry of Intact HepG2 Cells)
The Oxygraph-2k (O2k, OROBOROS INSTRUMENTS, Austria) was used for measurements of respiration of intact cells. The respirometry was performed in Dulbecco's Modified Eagle Medium (DMEM) high glucose without supplements. All experiments were performed at 37° C.
HepG2 cells (ATCC collection code HB-8065™) were cultured in 10 cm^2 culture dishes in DMEM high glucose medium supplemented with 10% fetal bovine serum (FBS) and 100 units/mL penicillin and 100 μg/mL streptomycin until approximately 90% confluence was reached. Immediately prior to performing the respirometric assay, the cells were washed with media without FBS, trypsinized and resuspended in DMEM high glucose without FBS.
The final concentration of intact cells in the O2k-chamber was 0.5-10^6/mL. After stabilization of respiration, the Complex I inhibitor, rotenone, at 1 μM final concentration was added to inhibit electron flux via Complex I. Then, compound to be tested was added at 10 μM final concentration, and the change in respiration rate of intact cells was monitored. […]

[3] = system: HepG2 human hepatocarcinoma cells; experiment: Rotenone ATP Assay (Complex I by-pass assay); type: cell-based
Experimental: Example 13: Rotenone ATP Assay (a Complex I by-Pass Assay)
This assay has been adapted from Haefeli R H, Erb M, Gemperli A C, Robay D, Courdier Fruh I, et al. (2011) NQO1-Dependent Redox Cycling of Idebenone: Effects on Cellular Redox Potential and Energy Levels. PLoS ONE 6(3): e17963. HepG2 human hepatocarcinoma cells are co-incubated with the electron transport chain complex I toxin rotenone +/− compounds of interest and the corresponding effect on ATP synthesis is measured with a bioluminescent substrate.
The stock solutions of the test articles (See Table 1, below for a list of the test articles examined using this assay) were prepared in dimethyl sulfoxide (DMSO at 10 mM). Working stock solutions were prepared on the day of the experiment in glucose free, serum free Dulbecco's modified Eagles medium (DMEM) supplemented with 50 micromolar rotenone.
In brief, HepG2 cells were plated at 25,000 cells per well in low glucose (1 gram/Liter) DMEM medium+10% fetal calf serum and incubated for 24 hours. The following day, the media was decanted and subsequently replaced with glucose free/serum free DMEM which has been supplemented with 50 micromolar rotenone and compound of interest. Serial dilutions of compound were prepared in 3× dilutions beginning at 25 micromolar. The cells were incubated for 60 minutes in a humidified tissue culture incubator. Following incubation, ATP levels were quantified via bioluminescent assay (Promega […] Glo Assay kit) and readings were captured on a standard microplate reader.
ATP bioluminescence is plotted versus the log of compound of interest and data are used to generate EC50 values. Curve fitting is performed using a sigmoidal dose response curve fit function (GraphPad Prism software).
EC50 values were derived from seven-point dose response curves performed on n=3 technical replicates per dose. Robustness of curve fit was assessed as a quality control measure, with an R squared value of at least 0.80 being required for a successful curve fit. Compounds of interest showing an increase in ATP bioluminescence relative to vehicle control were verified in an independent biological replicate of n=3 technical replicates per dose.
This assay is a direct measure of the ability of compounds of interest to restore ATP production under conditions of inhibition of Complex I of the mitochondrial electron transport chain. As the majority of ATP produced via the electron transport chain is thought to derive from Complex I activity, significant impairment in Complex I function has dire biological consequences. Of note, Complex I mutations are thought to drive pathophysiology in multiple mitochondrial diseases, including Leigh syndrome and Leber's Hereditary Optic Neuropathy (LHON), while diminished Complex I activity and the resultant attenuation of ATP production has been shown in neurodegenerative diseases, including Friedreich's Ataxia, Parkinson's Disease and Huntington's Disease. In brief, most compounds were tested in the Rotenone Oxygraph Assay instead of this assay but only Idebenone was active amongst Omaveloxolone, Idebenone and Vatiquinone.

SMILES	EC50 [1]	EC50 [2]	activation at 10 µM (HepG2 cells)	protection against BSO induced cell death (in words) ([1]; BSO Assay, text statement)	Complex I by-pass activity in Rotenone ATP Assay (in words) [3]	EC50 ([3]; Homo sapiens, 1 h, HepG2, 50 micromolar rotenone, 60 minutes, ATP bioluminescence)
COC1=C(OC)C(=O)C(CCCCCC(F)(F)F)=C(C)C1=O [Compound E, 2,3-dimethoxy-5-methyl-6-(6,6,6-trifluorohexyl)cyclohexa-2,5-diene-1,4-dione]	359 nM	135 nM	49%	–	–	–
CC1=C(C)C(=O)C(C/C=C(\C)CC/C=C(\C)CCC=C(F)F)=C(C)C1=O [Compound A, 2-((2E,6E)-11,11-difluoro-3,7-dimethylundeca-2,6,10-trien-1-yl)-3,5,6-trimethylcyclohexa-2,5-diene-1,4-dione]	67.1 nM	–	–	best of the test compounds	–	–
COC1=C(OC)C(=O)C(CCCC(F)(F)F)=C(C)C1=O [Compound I, 2,3-dimethoxy-5-methyl-6-(4,4,4-trifluorobutyl)cyclohexa-2,5-diene-1,4-dione]	772 nM	479 nM	37.8%	–	–	–
COC1=C(OC)C(=O)C(CCCCCCF)=C(C)C1=O [Compound G, 2-(6-fluorohexyl)-5,6-dimethoxy-3-methylcyclohexa-2,5-diene-1,4-dione]	555 nM	205 nM	42.7%	–	–	–
CCCCCCCCCCC1=C(C)C(=O)C(OC)=C(OC)C1=O [Compound D, reference compound]	159 nM	70 nM	30%	–	–	–
CCCCCCCC1=C(C)C(=O)C(OC)=C(OC)C1=O [Compound H, 2-heptyl-5,6-dimethoxy-3-methylcyclohexa-2,5-diene-1,4-dione]	241 nM	56 nM	41.8%	–	–	–
COC1=C(OC)C(=O)C(CCC[Si](C)(C)C)=C(C)C1=O [Compound K, 2,3-dimethoxy-5-methyl-6-(3-(trimethylsilyl)propyl)cyclohexa-2,5-diene-1,4-dione]	–	75 nM	41.4%	–	–	–
COC1=C(OC)C(=O)C(C/C=C(\C)CC/C=C(\C)CCC=C(F)F)=C(C)C1=O [Compound B, 2-((2E,6E)-11,11-difluoro-3,7-dimethylundeca-2,6,10-trien-1-yl)-5,6-dimethoxy-3-methylcyclohexa-2,5-diene-1,4-dione]	199 nM	–	–	–	comparable to that of Idebenone	1020 nM
COC1=C(OC)C(=O)C(CCCCCC(F)F)=C(C)C1=O [Compound F, 2-(6,6-difluorohexyl)-5,6-dimethoxy-3-methylcyclohexa-2,5-diene-1,4-dione]	689 nM	146 nM	44.7%	–	–	–
